Results on eleven molecules are retold here after ChEMBL document CHEMBL1909046, “DrugMatrix in vitro pharmacology data”.

Test system in one assay: not listed separately
The experiment in a line: DRUGMATRIX: Glutamate, AMPA radioligand binding (ligand: [3H] AMPA). The class given is cell membranes, Rattus norvegicus, Wistar, Cerebral cortex, Membrane. To be noted: Not Active = under 50% inhibition at 10 µM.
In the case of `C[C@]12C/C(=C/O)C(=O)C[C@@H]1CC[C@@H]1[C@@H]2CC[C@@]2(C)[C@H]1CC[C@]2(C)O` [OXYMETHOLONE], the IC50 entry is listed as “Not Active” and the Ki result is recorded as “Not Active”.
For the molecule `CC(C)(CO)C(O)C(=O)NCCCO` (stereo not given) [PANTHENOL], the IC50 result is listed as “Not Active” and the Ki entry was “Not Active”.
Consider `COc1ccc(Cc2nccc3cc(OC)c(OC)cc23)cc1OC` [PAPAVERINE], for which the IC50 result is reported as “Not Active” and the Ki entry is on record as “Not Active”.
Turning to `OCCN1CCN(CCCN2c3ccccc3Sc3ccc(Cl)cc32)CC1` [PERPHENAZINE], the IC50 entry was “Not Active” and the Ki entry is listed as “Not Active”.
For the molecule `CCCCC1C(=O)N(c2ccccc2)N(c2ccccc2)C1=O` [PHENYLBUTAZONE], the IC50 result is “Not Active” and the Ki result is reported as “Not Active”.
Consider `Cc1cccc(Nc2cc(Cl)nc(SCC(=O)O)n2)c1C` [PIRINIXIC ACID], for which the IC50 entry was “Not Active” and the Ki result is “Not Active”.
On to `CC[C@H](C)C(=O)O[C@H]1C[C@H](O)C=C2C=C[C@H](C)[C@H](CC[C@@H](O)C[C@@H](O)CC(=O)O)[C@H]21` [PRAVASTATIN], for which the IC50 entry is reported as “Not Active” and the Ki result is recorded as “Not Active”.
With `CC(C)(Sc1cc(C(C)(C)C)c(O)c(C(C)(C)C)c1)Sc1cc(C(C)(C)C)c(O)c(C(C)(C)C)c1` [PROBUCOL], the IC50 result is “Not Active” and the Ki entry was “Not Active”.
In the case of COBALT(II) ACETYLACETONATE, the IC50 entry is listed as “Not Active” and the Ki entry is “Not Active”.
For INSULIN HUMAN, the IC50 result is “Not Active” and the Ki result was “Not Active”.
Consider POLYVINYL ALCOHOL, for which the IC50 result is listed as “Not Active” and the Ki result is reported as “Not Active”.

The target in the next assay is Vascular endothelial growth factor receptor 1 (Homo sapiens, UniProt P17948). The experiment in a line: biochemical. To be noted: huvec. The class given is cell-based, HUVEC. Also: in other assays of this panel Not Active means under 50% inhibition at 10 µM.
Sequence of Vascular endothelial growth factor receptor 1 (P17948 whole entry): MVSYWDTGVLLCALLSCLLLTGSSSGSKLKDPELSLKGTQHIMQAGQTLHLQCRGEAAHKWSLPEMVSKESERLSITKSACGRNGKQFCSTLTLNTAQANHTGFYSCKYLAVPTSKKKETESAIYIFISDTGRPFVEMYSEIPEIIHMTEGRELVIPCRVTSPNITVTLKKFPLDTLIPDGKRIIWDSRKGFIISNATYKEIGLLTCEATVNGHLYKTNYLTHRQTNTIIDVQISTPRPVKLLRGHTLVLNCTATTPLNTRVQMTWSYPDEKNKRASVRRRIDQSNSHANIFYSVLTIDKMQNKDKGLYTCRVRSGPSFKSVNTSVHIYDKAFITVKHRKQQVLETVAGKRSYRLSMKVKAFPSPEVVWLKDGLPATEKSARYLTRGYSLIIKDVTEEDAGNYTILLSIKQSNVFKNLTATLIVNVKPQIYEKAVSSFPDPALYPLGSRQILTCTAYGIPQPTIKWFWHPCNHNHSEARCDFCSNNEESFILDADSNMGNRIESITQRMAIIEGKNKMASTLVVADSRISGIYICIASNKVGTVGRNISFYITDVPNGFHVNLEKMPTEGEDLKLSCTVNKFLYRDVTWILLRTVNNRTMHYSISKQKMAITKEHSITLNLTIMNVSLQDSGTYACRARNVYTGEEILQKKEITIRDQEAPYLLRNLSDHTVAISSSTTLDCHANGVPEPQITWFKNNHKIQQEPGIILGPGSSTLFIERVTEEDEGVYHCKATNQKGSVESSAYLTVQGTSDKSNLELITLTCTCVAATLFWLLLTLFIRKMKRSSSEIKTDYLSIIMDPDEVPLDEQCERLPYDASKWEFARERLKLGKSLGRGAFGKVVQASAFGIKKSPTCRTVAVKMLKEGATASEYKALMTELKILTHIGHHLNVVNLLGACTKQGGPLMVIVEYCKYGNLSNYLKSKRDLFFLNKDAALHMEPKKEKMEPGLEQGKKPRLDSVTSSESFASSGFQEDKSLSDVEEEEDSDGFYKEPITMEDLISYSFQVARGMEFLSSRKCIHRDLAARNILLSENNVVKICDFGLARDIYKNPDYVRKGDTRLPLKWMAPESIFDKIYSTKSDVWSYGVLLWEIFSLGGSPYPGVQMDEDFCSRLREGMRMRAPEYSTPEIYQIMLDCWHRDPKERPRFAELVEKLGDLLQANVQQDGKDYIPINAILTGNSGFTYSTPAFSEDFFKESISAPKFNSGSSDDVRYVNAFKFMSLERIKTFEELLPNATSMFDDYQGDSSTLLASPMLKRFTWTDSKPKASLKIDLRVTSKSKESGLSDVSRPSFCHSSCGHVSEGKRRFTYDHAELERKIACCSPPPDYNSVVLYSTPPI
For the molecule `C[C@]12C/C(=C/O)C(=O)C[C@@H]1CC[C@@H]1[C@@H]2CC[C@@]2(C)[C@H]1CC[C@]2(C)O` [OXYMETHOLONE], the IC50 result is recorded as “Not Active”.
Still for that read-out and setting: then `CC(C)(CO)C(O)C(=O)NCCCO` (stereo not given) [PANTHENOL], with “Not Active”; and `COc1ccc(Cc2nccc3cc(OC)c(OC)cc23)cc1OC` [PAPAVERINE], with “Not Active”; and `OCCN1CCN(CCCN2c3ccccc3Sc3ccc(Cl)cc32)CC1` [PERPHENAZINE], with “Not Active”.
For the molecule `CCCCC1C(=O)N(c2ccccc2)N(c2ccccc2)C1=O` [PHENYLBUTAZONE], the IC50 result is “Not Active”.
On the same count and under the same terms, then `Cc1cccc(Nc2cc(Cl)nc(SCC(=O)O)n2)c1C` [PIRINIXIC ACID], with “Not Active”.
The same measure, in the same setting: then `CC[C@H](C)C(=O)O[C@H]1C[C@H](O)C=C2C=C[C@H](C)[C@H](CC[C@@H](O)C[C@@H](O)CC(=O)O)[C@H]21` [PRAVASTATIN], with “Not Active”; and `CC(C)(Sc1cc(C(C)(C)C)c(O)c(C(C)(C)C)c1)Sc1cc(C(C)(C)C)c(O)c(C(C)(C)C)c1` [PROBUCOL], with “Not Active”.
As to COBALT(II) ACETYLACETONATE, the IC50 entry is listed as “Not Active” and the Ki entry is given as “Not Active”.
In the case of INSULIN HUMAN, the IC50 result was “Not Active” and the Ki result is on record as “Not Active”.
Take POLYVINYL ALCOHOL: the IC50 entry was “Not Active” and the Ki entry was “Not Active”.

The target in the next assay is Prostaglandin G/H synthase 1 (Homo sapiens, UniProt P23219). Kind of assay: biochemical. The class given is tissue-based, Platelet. The following applies: platelet.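 Also: inhibition of COX-1 enzyme activity, with arachidonic acid supplied as substrate; in other assays of this panel Not Active means under 50% inhibition at 10 µM.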
Sequence of Prostaglandin G/H synthase 1 (P23219 whole entry): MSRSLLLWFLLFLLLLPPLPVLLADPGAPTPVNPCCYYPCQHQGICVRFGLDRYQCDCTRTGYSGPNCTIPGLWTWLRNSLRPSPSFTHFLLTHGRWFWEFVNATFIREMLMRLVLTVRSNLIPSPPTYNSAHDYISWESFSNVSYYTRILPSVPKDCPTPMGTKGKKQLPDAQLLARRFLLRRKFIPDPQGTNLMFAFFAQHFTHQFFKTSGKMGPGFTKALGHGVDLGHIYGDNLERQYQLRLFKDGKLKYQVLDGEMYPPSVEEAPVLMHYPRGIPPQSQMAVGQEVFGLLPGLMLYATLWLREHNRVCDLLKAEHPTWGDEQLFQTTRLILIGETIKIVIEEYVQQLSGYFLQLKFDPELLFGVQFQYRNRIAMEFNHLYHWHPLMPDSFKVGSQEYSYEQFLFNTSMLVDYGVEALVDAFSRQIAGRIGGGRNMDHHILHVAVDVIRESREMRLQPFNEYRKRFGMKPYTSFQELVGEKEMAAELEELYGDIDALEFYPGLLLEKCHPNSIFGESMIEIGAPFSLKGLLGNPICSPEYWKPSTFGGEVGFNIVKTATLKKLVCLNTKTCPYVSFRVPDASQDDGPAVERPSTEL
Regarding `C[C@]12C/C(=C/O)C(=O)C[C@@H]1CC[C@@H]1[C@@H]2CC[C@@]2(C)[C@H]1CC[C@]2(C)O` [OXYMETHOLONE], the IC50 entry is reported as “Not Active”.
The same measure, in the same setting: then `CC(C)(CO)C(O)C(=O)NCCCO` (stereo not given) [PANTHENOL], with “Not Active”; and `COc1ccc(Cc2nccc3cc(OC)c(OC)cc23)cc1OC` [PAPAVERINE], with “Not Active”.
For the molecule `OCCN1CCN(CCCN2c3ccccc3Sc3ccc(Cl)cc32)CC1` [PERPHENAZINE], the IC50 entry is “Not Active”.
Regarding `CCCCC1C(=O)N(c2ccccc2)N(c2ccccc2)C1=O` [PHENYLBUTAZONE], the IC50 entry was “Not Active”.
Still for that read-out and setting: then `Cc1cccc(Nc2cc(Cl)nc(SCC(=O)O)n2)c1C` [PIRINIXIC ACID], with “Not Active”; and `CC[C@H](C)C(=O)O[C@H]1C[C@H](O)C=C2C=C[C@H](C)[C@H](CC[C@@H](O)C[C@@H](O)CC(=O)O)[C@H]21` [PRAVASTATIN], with “Not Active”.
As to `CC(C)(Sc1cc(C(C)(C)C)c(O)c(C(C)(C)C)c1)Sc1cc(C(C)(C)C)c(O)c(C(C)(C)C)c1` [PROBUCOL], the IC50 result is given as “Not Active”.
With COBALT(II) ACETYLACETONATE, the IC50 entry is listed as “Not Active” and the Ki entry is “Not Active”.
Turning to INSULIN HUMAN, the IC50 entry is reported as “Not Active” and the Ki result is recorded as “Not Active”.
As for POLYVINYL ALCOHOL, the IC50 result was “Not Active” and the Ki entry is recorded as “Not Active”.

The target of a further assay is 5-hydroxytryptamine receptor 1B (Rattus norvegicus, UniProt P28564). Also: in other assays of this panel Not Active means under 50% inhibition at 10 µM.
Sequence of 5-hydroxytryptamine receptor 1B (P28564 whole entry): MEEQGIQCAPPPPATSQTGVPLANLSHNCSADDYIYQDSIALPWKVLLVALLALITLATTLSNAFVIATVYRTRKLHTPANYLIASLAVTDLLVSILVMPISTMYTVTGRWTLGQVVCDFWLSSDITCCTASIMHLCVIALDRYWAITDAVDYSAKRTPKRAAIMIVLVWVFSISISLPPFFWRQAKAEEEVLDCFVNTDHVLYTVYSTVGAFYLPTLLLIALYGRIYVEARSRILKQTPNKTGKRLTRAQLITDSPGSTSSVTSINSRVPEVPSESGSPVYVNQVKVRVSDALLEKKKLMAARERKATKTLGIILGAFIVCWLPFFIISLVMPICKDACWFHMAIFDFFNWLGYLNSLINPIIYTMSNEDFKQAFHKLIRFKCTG
Assay: not given
The format is cell membranes, Wistar, Cerebral cortex, Membrane.
Conditions: not given
Turning to `C[C@]12C/C(=C/O)C(=O)C[C@@H]1CC[C@@H]1[C@@H]2CC[C@@]2(C)[C@H]1CC[C@]2(C)O` [OXYMETHOLONE], the IC50 result is recorded as “Not Active”.
The same measure, in the same setting: then `CC(C)(CO)C(O)C(=O)NCCCO` (stereo not given) [PANTHENOL], with “Not Active”; and `COc1ccc(Cc2nccc3cc(OC)c(OC)cc23)cc1OC` [PAPAVERINE], with “Not Active”.
Regarding `OCCN1CCN(CCCN2c3ccccc3Sc3ccc(Cl)cc32)CC1` [PERPHENAZINE], the IC50 result is reported as “Not Active”.
Take `CCCCC1C(=O)N(c2ccccc2)N(c2ccccc2)C1=O` [PHENYLBUTAZONE]: the IC50 result is “Not Active”.
For the molecule `Cc1cccc(Nc2cc(Cl)nc(SCC(=O)O)n2)c1C` [PIRINIXIC ACID], the IC50 entry was “Not Active”.
The same measure, in the same setting: then `CC[C@H](C)C(=O)O[C@H]1C[C@H](O)C=C2C=C[C@H](C)[C@H](CC[C@@H](O)C[C@@H](O)CC(=O)O)[C@H]21` [PRAVASTATIN], with “Not Active”; and `CC(C)(Sc1cc(C(C)(C)C)c(O)c(C(C)(C)C)c1)Sc1cc(C(C)(C)C)c(O)c(C(C)(C)C)c1` [PROBUCOL], with “Not Active”.
Consider COBALT(II) ACETYLACETONATE, for which the IC50 entry is recorded as “Not Active” and the Ki entry is on record as “Not Active”.
On to INSULIN HUMAN, for which the IC50 result is recorded as “Not Active” and the Ki entry is “Not Active”.
As for POLYVINYL ALCOHOL, the IC50 entry is given as “Not Active” and the Ki entry is “Not Active”.

Another assay deals with T1, Type-2 angiotensin II receptor (Homo sapiens, UniProt P50052).
T1 sequence (P50052 whole entry): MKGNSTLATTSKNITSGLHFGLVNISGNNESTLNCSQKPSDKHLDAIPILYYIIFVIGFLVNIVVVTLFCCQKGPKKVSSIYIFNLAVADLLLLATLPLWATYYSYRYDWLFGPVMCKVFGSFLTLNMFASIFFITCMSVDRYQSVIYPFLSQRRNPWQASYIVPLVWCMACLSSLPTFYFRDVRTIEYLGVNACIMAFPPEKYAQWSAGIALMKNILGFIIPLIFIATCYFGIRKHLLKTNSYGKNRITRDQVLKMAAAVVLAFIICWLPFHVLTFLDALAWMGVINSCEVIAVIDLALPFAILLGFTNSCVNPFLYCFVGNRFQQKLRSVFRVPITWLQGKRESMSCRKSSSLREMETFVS
Assay: not given
The class given is cell-based. To be noted: cho-k1.
On to `C[C@]12C/C(=C/O)C(=O)C[C@@H]1CC[C@@H]1[C@@H]2CC[C@@]2(C)[C@H]1CC[C@]2(C)O` [OXYMETHOLONE], for which the IC50 result is listed as “Not Active”.
As to `CC(C)(CO)C(O)C(=O)NCCCO` (stereo not given) [PANTHENOL], the IC50 entry is reported as “Not Active”.
On the same count and under the same terms, then `COc1ccc(Cc2nccc3cc(OC)c(OC)cc23)cc1OC` [PAPAVERINE], with “Not Active”; and `OCCN1CCN(CCCN2c3ccccc3Sc3ccc(Cl)cc32)CC1` [PERPHENAZINE], with “Not Active”.
As for `CCCCC1C(=O)N(c2ccccc2)N(c2ccccc2)C1=O` [PHENYLBUTAZONE], the IC50 result is recorded as “Not Active”.
Same read-out and setting: then `Cc1cccc(Nc2cc(Cl)nc(SCC(=O)O)n2)c1C` [PIRINIXIC ACID], with “Not Active”; and `CC[C@H](C)C(=O)O[C@H]1C[C@H](O)C=C2C=C[C@H](C)[C@H](CC[C@@H](O)C[C@@H](O)CC(=O)O)[C@H]21` [PRAVASTATIN], with “Not Active”.
Same read-out and setting: then `CC(C)(Sc1cc(C(C)(C)C)c(O)c(C(C)(C)C)c1)Sc1cc(C(C)(C)C)c(O)c(C(C)(C)C)c1` [PROBUCOL], with “Not Active”.
For the molecule COBALT(II) ACETYLACETONATE, the IC50 result is reported as “Not Active” and the Ki entry is recorded as “Not Active”.
With INSULIN HUMAN, the IC50 result is on record as “Not Active” and the Ki entry was “Not Active”.
As to POLYVINYL ALCOHOL, the IC50 entry is reported as “Not Active” and the Ki entry is given as “Not Active”.

Test system in the next assay: not listed separately
Kind of assay: DRUGMATRIX: Potassium Channel [KATP] radioligand binding (ligand: [3H] Glyburide). The class given is cell membranes, Membrane. The following applies: hit-t15; Not Active = under 50% inhibition at 10 µM.
In the case of `C[C@]12C/C(=C/O)C(=O)C[C@@H]1CC[C@@H]1[C@@H]2CC[C@@]2(C)[C@H]1CC[C@]2(C)O` [OXYMETHOLONE], the IC50 result is reported as “Not Active” and the Ki result was “Not Active”.
Regarding `CC(C)(CO)C(O)C(=O)NCCCO` (stereo not given) [PANTHENOL], the IC50 result is “Not Active” and the Ki result was “Not Active”.
`COc1ccc(Cc2nccc3cc(OC)c(OC)cc23)cc1OC` [PAPAVERINE]: the IC50 entry is given as “Not Active” and the Ki result is on record as “Not Active”.
For `OCCN1CCN(CCCN2c3ccccc3Sc3ccc(Cl)cc32)CC1` [PERPHENAZINE], the IC50 entry is “Not Active” and the Ki result is given as “Not Active”.
Turning to `CCCCC1C(=O)N(c2ccccc2)N(c2ccccc2)C1=O` [PHENYLBUTAZONE], the IC50 result is recorded as “Not Active” and the Ki result is “Not Active”.
`Cc1cccc(Nc2cc(Cl)nc(SCC(=O)O)n2)c1C` [PIRINIXIC ACID]: the IC50 entry is on record as “Not Active” and the Ki entry was “Not Active”.
For `CC[C@H](C)C(=O)O[C@H]1C[C@H](O)C=C2C=C[C@H](C)[C@H](CC[C@@H](O)C[C@@H](O)CC(=O)O)[C@H]21` [PRAVASTATIN], the IC50 entry is “Not Active” and the Ki result is “Not Active”.
`CC(C)(Sc1cc(C(C)(C)C)c(O)c(C(C)(C)C)c1)Sc1cc(C(C)(C)C)c(O)c(C(C)(C)C)c1` [PROBUCOL]: the IC50 entry was “Not Active” and the Ki result was “Not Active”.
On to COBALT(II) ACETYLACETONATE, for which the IC50 result is on record as “Not Active” and the Ki result was “Not Active”.
For INSULIN HUMAN, the IC50 entry is recorded as “Not Active” and the Ki result is “Not Active”.
On to POLYVINYL ALCOHOL, for which the IC50 entry was “Not Active” and the Ki result was “Not Active”.
